# Measurements: publication PMC9673926, “Nucleotide binding as an allosteric regulatory mechanism for Akkermansia muciniphila β-N-acetylhexosaminidase Am2136” (Gut Microbes, 2022)
# Substitutions are numbered along the chain they refer to.
# Experiments:
# Test in all cases: Nucleotide binding affinity by intrinsic fluorescence, mutant
# Set-up in all cases: The coding region (residue Q20-L756) of Am2136 without signal peptide was based on UniProt; 6XHis (N); made in house; host or cells: E. coli BL21 (DE3)
# Am2136 E649A = target: T1, Am2136 E649A (Akkermansia muciniphila, UniProt B2UPR7, E649A)
# T1 sequence (B2UPR7 20-756 E649A): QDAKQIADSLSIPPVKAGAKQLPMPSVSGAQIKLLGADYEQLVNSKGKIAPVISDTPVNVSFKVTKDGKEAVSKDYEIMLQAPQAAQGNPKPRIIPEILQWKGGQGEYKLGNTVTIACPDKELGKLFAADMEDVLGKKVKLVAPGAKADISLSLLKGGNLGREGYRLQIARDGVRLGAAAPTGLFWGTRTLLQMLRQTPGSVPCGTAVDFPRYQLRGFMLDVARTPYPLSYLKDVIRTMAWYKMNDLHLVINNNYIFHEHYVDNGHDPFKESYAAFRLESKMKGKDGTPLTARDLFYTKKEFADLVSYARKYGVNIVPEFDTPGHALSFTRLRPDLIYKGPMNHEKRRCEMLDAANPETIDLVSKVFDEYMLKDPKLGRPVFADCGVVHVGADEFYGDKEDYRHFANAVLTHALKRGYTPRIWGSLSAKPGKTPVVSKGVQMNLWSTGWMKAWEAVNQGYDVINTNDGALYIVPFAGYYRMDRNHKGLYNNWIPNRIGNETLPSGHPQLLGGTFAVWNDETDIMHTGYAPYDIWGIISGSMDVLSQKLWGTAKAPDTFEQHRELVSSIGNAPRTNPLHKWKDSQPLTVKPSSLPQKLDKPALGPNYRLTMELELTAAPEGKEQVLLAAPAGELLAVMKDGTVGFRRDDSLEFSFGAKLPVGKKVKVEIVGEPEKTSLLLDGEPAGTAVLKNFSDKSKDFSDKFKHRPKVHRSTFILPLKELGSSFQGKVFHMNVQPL
# Method: (§1) The nucleotide binding ability was determined on Fluorescence Spectrometer Duetta (HORIBA) by measuring the change of peak intensity. The fluorescence was excited at 286 nm and emitted at 336 nm. And the measurement was processed under 400 V voltage with 2.5 nm excitation slit and 5 nm emission slit. The 120 μL reaction mixture contains 0–550 μM nucleotide, 5 μM proteins, 25 mM Tris pH 8.0 and 150 mM NaCl. The sample was incubated at 4°C for 5 min before testing.
# Am2136 P595A+H597A = target: T2, Am2136 P595A+H597A (Akkermansia muciniphila, UniProt B2UPR7, H597A/P595A)
# T2 sequence (B2UPR7 20-756 P595A/H597A): T1 sequence (B2UPR7 20-756 E649A) with P576A, H578A, A630E
# Method: as §1
# Am2136 Y327F+Y331F = target: T3, Am2136 Y327F+Y331F (Akkermansia muciniphila, UniProt B2UPR7, Y327F/Y331F)
# T3 sequence (B2UPR7 20-756 Y327F/Y331F): T1 sequence (B2UPR7 20-756 E649A) with Y308F, Y312F, A630E
# Method: as §1
smiles,measurement,setting,value
Nc1nc2c(ncn2[C@@H]2O[C@H](COP(=O)(O)OP(=O)(O)O)[C@@H](O)[C@H]2O)c(=O)[nH]1 [GDP],Kd,Am2136 E649A,236 µM
same,Kd,Am2136 P595A+H597A,140 ± 4.26 µM
same,Kd,Am2136 Y327F+Y331F,175 ± 13.7 µM
